Assay results: patent US6551964B1, “Use of citric acid derivatives as pesticidal adjuvants” (Bayer Cropscience S.A., priority 1998, dated 2003)
Where a name gives a salt, the structure may show the parent alone.

Test system: test species shown in Table C (common weeds)
Test: Herbicidal efficacy, glasshouse, all test species of Table C
Format: in vivo
Details: adjuvant alone, experiments 26d to 29d

Row | SMILES | herbicidal effects in the absence of any active ingredient
1 | CCCCOC(=O)CC(CC(=O)OCCCC)(OC(C)=O)C(=O)OCCCC [O-acetyl tri-n-butyl citrate] | no herbicidal effects
2 | CCCCOC(=O)CC(O)(CC(=O)OCCCC)C(=O)OCCCC [tri-n-butyl citrate] | no herbicidal effects
